From ChEMBL document CHEMBL1153343, “Liver X receptor agonists with selectivity for LXRbeta; N-aryl-3,3,3-trifluoro-2-hydroxy-2-methylpropionamides” (Bioorg Med Chem Lett, 2009) come the findings set out here.

Structures are written as SMILES. ≈ marks a conversion by molar mass, not a printed value. Calls of active or inactive are those of the source. The rule behind the calls is not given here.

Data set [1] addresses T1, Oxysterols receptor LXR-beta (Homo sapiens, UniProt P55055).
T1 sequence (P55055 whole entry): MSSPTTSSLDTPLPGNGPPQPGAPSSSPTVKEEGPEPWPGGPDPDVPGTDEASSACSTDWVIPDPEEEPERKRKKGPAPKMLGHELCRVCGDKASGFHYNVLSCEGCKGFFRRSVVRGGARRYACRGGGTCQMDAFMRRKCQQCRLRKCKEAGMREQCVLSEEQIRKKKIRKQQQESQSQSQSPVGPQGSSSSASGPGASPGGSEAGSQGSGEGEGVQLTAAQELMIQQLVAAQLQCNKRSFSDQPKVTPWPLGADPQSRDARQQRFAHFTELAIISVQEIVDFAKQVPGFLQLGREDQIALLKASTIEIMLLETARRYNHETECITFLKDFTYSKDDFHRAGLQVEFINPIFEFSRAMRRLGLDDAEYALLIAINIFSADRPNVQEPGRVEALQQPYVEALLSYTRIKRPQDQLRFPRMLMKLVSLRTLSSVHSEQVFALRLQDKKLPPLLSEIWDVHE
Put plainly: Agonist activity at LXRbeta ligand binding domain by FRET based SRC1 recruitment assay.

For data set [2], the target named is T1, Oxysterols receptor LXR-beta. Nature of the data set: Agonist activity at human LXRbeta expressed in human SH-SY5Y cells co-transfected with Gal4-LBD after 24 hrs by luciferase reporter gene assay. Type of data set: functional, cell-based. On the technique in general: Reporter assays use an easily measured gene product as a stand-in for the process of interest.

For data set [3], the target named is T2, Oxysterols receptor LXR-alpha (Homo sapiens, UniProt Q13133).
T2 sequence (Q13133 whole entry): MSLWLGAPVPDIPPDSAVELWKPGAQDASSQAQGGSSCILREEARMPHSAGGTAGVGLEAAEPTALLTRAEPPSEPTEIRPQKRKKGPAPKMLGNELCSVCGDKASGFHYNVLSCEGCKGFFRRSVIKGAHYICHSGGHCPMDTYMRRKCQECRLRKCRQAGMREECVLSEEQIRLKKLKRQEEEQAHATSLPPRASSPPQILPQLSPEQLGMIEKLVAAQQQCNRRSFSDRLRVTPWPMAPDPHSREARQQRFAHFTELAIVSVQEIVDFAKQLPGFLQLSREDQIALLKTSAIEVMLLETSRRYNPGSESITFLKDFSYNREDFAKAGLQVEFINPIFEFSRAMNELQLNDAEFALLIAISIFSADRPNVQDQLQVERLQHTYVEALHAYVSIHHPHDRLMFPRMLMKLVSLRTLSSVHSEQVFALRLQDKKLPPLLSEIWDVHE
Nature of the data set: Agonist activity at LXRalpha ligand binding domain by FRET based SRC1 recruitment assay.

In data set [4] the target is T2, Oxysterols receptor LXR-alpha. Nature of the data set: Agonist activity at human LXRalpha expressed in human SH-SY5Y cells co-transfected with Gal4-LBD after 24 hrs by luciferase reporter gene assay. Type of data set: functional, cell-based.
The subject of data set [5] is Mus musculus. Nature of the data set: Upregulation of ABCG1 mRNA level in mouse brain homogenates at 30 umol/kg, po daily once after 3 days relative to control. Type of data set: functional.
The test system of data set [6] is Mus musculus. Nature of the data set: Upregulation of SREBP-1c mRNA level in mouse liver at 1.0 umol/kg, po daily once after 3 days relative to control. The data set is classed as functional.
Data set [7] is described as follows: Permeability across human Caco-2 cell membrane. To be noted: read-out: permeability. The data set is classed as ADME, cell-based. (Passage across Caco-2 layers is used to estimate intestinal permeability.)
The test system of data set [8] is Mus musculus. Nature of the data set: Upregulation of ABCA1 mRNA level in mouse brain homogenates at 30 umol/kg, po daily once after 3 days relative to control. The data set is classed as functional.
Data set [9] can be described thus: Clearance in po dosed rat. To be noted: in vivo. The data set is classed as ADME, organism-based.
Data set [10] can be described thus: Half life in po dosed rat. The data set is classed as ADME, organism-based. Particulars: in vivo.
The next data set has as its system Rattus norvegicus. Put plainly: Volume of distribution in po dosed rat. To be noted: in vivo. Type of data set: ADME, organism-based.
The target in data set [11] is T3, Oxysterols receptor LXR-alpha (Homo sapiens) (UniProt Q13133).
T3 sequence (whole entry): T2 sequence (Q13133 whole entry)
Put plainly: Agonist activity at human LXRalpha expressed in human U2OS cells co-transfected with Gal4-LBD after 24 hrs by luciferase reporter gene assay. The data set is classed as functional, cell-based.

The test system of data set [12] is Mus musculus. Put plainly: Upregulation of SREBP-1c mRNA level in mouse liver at 30 umol/kg, po daily once after 3 days relative to control. Type of data set: functional.
The target in data set [13] is T4, Oxysterols receptor LXR-beta (Homo sapiens) (UniProt P55055).
T4 sequence (whole entry): T1 sequence (P55055 whole entry)
Put plainly: Agonist activity at human LXRbeta expressed in human U2OS cells co-transfected with Gal4-LBD after 24 hrs by luciferase reporter gene assay. The data set is classed as functional, cell-based.

The nature of data set [14]: Solubility in 0.1 M phosphate buffer at pH 7.4 at 100 uM after 24 hrs by UV-TIC. Type of data set: physicochemical.
Data set [15] is described as follows: Bioavailability in rat. To be noted: in vivo. The data set is classed as ADME, organism-based.

In the case of `CCN(c1ccc(NC(=O)C(C)(O)C(F)(F)F)c(Cl)c1)S(=O)(=O)c1ccccc1Cl` (stereo not drawn), the EC50 (usually the concentration needed to bring the measured effect to its halfway point) in data set [1] worked out at 0.79 µM; in data set [2] it was 7.5 µM; in [3] it was 1 µM; in data set [4], 8.5 µM.

On to `C=CCN(c1ccc(NC(=O)C(C)(O)C(F)(F)F)c(Cl)c1)S(=O)(=O)c1ccccc1Cl` (stereo not drawn), for which the EC50 in data set [1] was 0.58 µM; in [2], above 30 µM; in data set [3] it was 0.47 µM; in [4] it was above 30 µM.

For the compound `CN(c1ccc(NC(=O)[C@](C)(O)C(F)(F)F)c(Cl)c1)S(=O)(=O)c1ccccc1`, the EC50 was 1.9 µM in [1], 0.959 µM in data set [2], 3.3 µM in data set [3] and 5 µM in data set [4].

`CC(O)(C(=O)Nc1ccc(N(Cc2ccccc2)S(=O)(=O)c2ccccc2Cl)cc1Cl)C(F)(F)F` (stereo not drawn): the EC50 in [1] was 0.88 µM; in data set [2], above 30 µM; in data set [3], above 100 µM; in data set [4], above 30 µM.

For the compound `COC(=O)CCc1ccc(S(=O)(=O)N(C)c2ccc(NC(=O)C(C)(O)C(F)(F)F)c(Cl)c2)cc1` (stereo not drawn), the EC50 is 3.5 µM in data set [1], above 30 µM in [2], 3.5 µM in [3] and above 30 µM in data set [4].

Regarding `CN(c1ccc(NC(=O)C(C)(O)C(F)(F)F)c(Cl)c1)S(=O)(=O)c1ccc(C(=O)O)cc1` (stereo not drawn), the EC50 in data set [1] is above 100 µM; in data set [2], above 30 µM; in [3], above 100 µM; in data set [4], above 30 µM.

Turning to `Cc1ccc(S(=O)(=O)N(C)c2ccc(NC(=O)[C@](C)(O)C(F)(F)F)c(Cl)c2)cc1`, the EC50 in [1] amounted to 1.5 µM; in data set [2] it was 1.59 µM; in data set [3] it was 1.97 µM; in data set [4], 5 µM.

`COC(=O)c1ccc(S(=O)(=O)N(C)c2ccc(NC(=O)C(C)(O)C(F)(F)F)c(Cl)c2)cc1` (stereo not drawn): the EC50 in data set [1] worked out at 2.32 µM; in [2] it was 3.81 µM; in data set [3] it was 3.1 µM; in data set [4], 3.61 µM.

With `CC(O)(C(=O)Nc1ccc(N(CC2CC2)S(=O)(=O)c2ccccc2Cl)cc1Cl)C(F)(F)F` (stereo not drawn), the EC50 is 0.94 µM in [1], above 30 µM in data set [2], 1.08 µM in [3] and above 30 µM in data set [4].

Consider `C[C@H](CC[C@@H]1OC1(C)C)[C@H]1CC[C@H]2[C@@H]3CC=C4C[C@@H](O)CC[C@]4(C)[C@H]3CC[C@]12C` [24(S),25-EPOXYCHOLESTEROL], for which the EC50 is 0.286 µM in data set [1], 0.4 µM in [2] and 0.28 µM in [3].

Take `CN(c1ccc(NC(=O)C(C)(O)C(F)(F)F)c(Cl)c1)S(=O)(=O)c1ccc(CCC(=O)O)cc1` (stereo not drawn): the EC50 in [1] is above 100 µM; in data set [2], above 30 µM; in data set [3], above 100 µM; in data set [4] it was above 30 µM.

With `CN(c1ccc(NC(=O)C(C)(O)C(F)(F)F)c(Cl)c1)S(=O)(=O)c1ccc(C#N)cc1` (stereo not drawn), the “fold change (FC)” value in the data set on Mus musculus [5] is given as 1.3; in the data set on Mus musculus [6], 3.6; in the data set with Mus musculus [8] it was 1.25; in the data set with Mus musculus [12], 1.3. Also, in [7], the Papp turned out to be 280 nm/s. For the same compound, the EC50 in data set [1] was 2.6 µM; in data set [2], 2.7 µM; in data set [3] it was 3.4 µM; in data set [4] it was 5 µM. Besides, the CL/F (commonly the apparent clearance, not corrected for the fraction that reaches the circulation) in data set [9] turned out to be 1.48 L/h/kg. In data set [10], the half-life (commonly the time in which the quantity being followed falls by half) is 4.4 h. In the data set with Rattus norvegicus, this compound had a Vd of 4.1 L/kg. Further, the outcome in data set [11] and in data set [13] was inactive. Besides, the solubility (commonly how much of the substance goes into solution per volume) at 24 h, 100 µM in [14] stood at 61 µM (≈ 28.2 µg/mL). Also, the bioavailability (usually dose-corrected exposure relative to a reference, in per cent) in data set [15] stood at 39%.

As for `O=C(O)Cc1cccc(OCCCN(Cc2cccc(C(F)(F)F)c2Cl)CC(c2ccccc2)c2ccccc2)c1`, the EC50 in data set [1] is 0.078 µM; in data set [2] it was 0.13 µM; in data set [3] it was 0.28 µM; in [4] it was 0.31 µM.

As to `CN(c1ccc(NC(=O)[C@](C)(O)C(F)(F)F)c(Cl)c1)S(=O)(=O)c1ccccc1Cl`, the EC50 was found to be 0.626 µM in [1], 0.813 µM in [2] and 1.82 µM in [4]. The result in data set [11] and in [13] was inactive.
